Test results reported in patent publication US7314858B2, “Retrocyclins: antiviral and antimicrobial peptides” (priority 2001, dated 2008).
“Also recorded” adds a separate entry of the source. Where a SMILES comes first, the peptide text is derived from it. Bridges are numbered along the chain shown (N, C = ends).

Tests used:
H9 cells = assay: Cytotoxicity by trypan blue exclusion; conditions: for cytotoxicity (trypan blue exclusion): 20 μg/ml, HIV-1-infected H9 cells
gp120 (BaL) = assay: Surface plasmon resonance binding; parameters: species or system HIV-1; conditions: immobilized gp120(BaL)
Excerpt: (§1) Surface plasmon resonance. Recombinant human soluble CD4 (full-length 45 kDa glycosylated ectodomain) was produced by ExpresSF+S. frugiperda cells in serum-free medium (Protein Sciences Corporation, Meriden, Conn.). Glycosylated HIV-1 gp120 (LAV) envelope glycoprotein (Catalog No. 2003-LAV) was purchased from the same source. Recombinant HIV-1BaL was obtained through the AIDS Research and Reference Reagent Program, Division of AIDS, National Institute of Allergy and Infectious Disease, NIH.
Surface plasmon resonance (SPR) experiments were done with a Biacore 2000 system (Biacore, Inc., Piscataway, N.J.). The running buffer (pH 7.4) contained 10 mM HEPES, 150 mM NaCl, 3 mM EDTA and 0.005% polysorbate 20. The immobilized proteins (gp120-LAV and CD4) were dissolved at 20 μg/ml in 10 mM sodium acetate, pH 5.0 and immobilized on a Biacore CM5 sensor chip using the amine coupling method. The chip was activated by mixing 400 mM EDC (N-ethyl-N-(3-dimethylaminopropyl)-carbodiimide hydrochloride) and 100 mM N-hydroxysuccinimide. […] Residual reactive groups on the chip surface were blocked using 1.0 Methanolamine/HCl, pH 8.5.
(§2) The flow cell chip used as a control lacked immobilized protein but was otherwise treated as above. Signals were corrected for nonspecific binding by subtracting the control signal. To regenerate the chip surface, bound ligands were removed with 10 mM HCl. Data were analyzed with BIAevaluation 3.1 software. Curve fitting was done with an assumption of 1:1 binding.
In those experiments, biosensor chips containing immobilized gp120 or CD4 were perfused with a 1 μg/ml solution of the peptides, and binding was measured by surface plasmon resonance. […] No binding studies were performed with gp120 preparations derived from non-B HIV-1 subtypes.

HIV-1 strain JR-CSF = assay: HIV-1 JR-CSF infection of CD4+ PBMC, p24 antigen ELISA; format: cell-based; conditions: JR-CSF (R5), peptide 10-20 μg/ml
Method: FIG. 5A-C. Anti-HIV-1 activity of retrocyclin. Two strains of HIV-1 and two types of human target cells were used. The IIIB strain is T-cell tropic (X4) and utilizes the CXCR4 co-receptor for entry; the JR-CSF strain is M-tropic (R5) and uses CCR5 for entry. PBMC signifies CD4^+-selected peripheral blood mononuclear cells. […] (A) Two concentrations of retrocyclin (2 μg/ml, 20 μg/ml), 20 μg/ml of the Rhesus circular defensin “RTD-1”, and 20 μg/ml of a horseshoe crab-derived peptide “T140”, reported to only prevent X4 infections, were tested in antiviral assays of against strain IIIB in H9 cells (n=2-6 per peptide; error bars indicate SEM). (B) To confirm our results with primary human cells, similar assays were performed utilizing IIIB virus and CD4^+ PBMC or (C) JR-CSF virus and CD4^+ PBMC. Peptides were not cytotoxic at indicated concentrations, measured by trypan blue exclusion. Average of duplicate experiments are reported for studies with PBMCs. Assay sensitivity=10 pg/ml.
Either HIV-1-permissive H9 cells were used as targets, or primary CD4^+ lymphocytes from HIV-1-seronegative donors generated from freshly purified peripheral blood mononuclear cells (PBMC) stimulated with a CD3-CD8 bispecific monoclonal antibody. After approximately 7 days, when 98% of these cells co-expressed CD3 and CD4, they were infected with HIV-1 with or without retrocyclin or other test peptide. These cells were maintained in RPMI containing 10% FCS supplemented with 2 mM glutamine, 100 U of penicillin/ml, 10 μg of streptomycin/ml, and 50 U of interleukin 2/ml (R10-50 media).
The p24 assay results shown in FIG. 9 are on a logarithmic scale. A horizontal reference line that passes through 100 on the ordinate scale corresponds to […] of p24 antigen. Results from 3 experiments (each performed with PBMC from a different donor) are shown.

gp120 (LAV) = target: T1, gp120 (LAV) (Human immunodeficiency virus type 1 group M subtype B, UniProt P03377); assay: Surface plasmon resonance binding; parameters: species or system HIV-1
T1 construct: Glycosylated HIV-1 gp120 (LAV) envelope glycoprotein; purchased Protein Sciences Corporation, Meriden, Conn; 2003-LAV
Method: FIG. 20. Binding to gp120. These binding isotherms were measured by surface plasmon resonance, using a biosensor chip that contained immobilized, recombinant gp120. Various concentrations of RC-100 and RC-101 (0.05 to 0.5 μg/ml) flowed over the biosensor chip between minutes 1 to 4, to allow the “on rates” to be measured. At 4 minutes, the peptide-containing solutions were replaced by peptide-free medium, to ascertain the “off-rates.”
as §1
Surface plasmon resonance (SPR) experiments were done with a Biacore 2000 system (Biacore, Inc., Piscataway, N.J.). The running buffer (pH 7.4) contained 10 mM HEPES, 150 mM NaCl, 3 mM EDTA and 0.005% polysorbate 20. The immobilized proteins (gp120-LAV and CD4) were dissolved at 20 μg/ml in 10 mM sodium acetate, pH 5.0 and immobilized on a Biacore CM5 sensor chip using the amine coupling method. The chip was activated by mixing 400 mM EDC (N-ethyl-N-(3-dimethylaminopropyl)-carbodiimide hydrochloride) and 100 mM N-hydroxysuccinimide. An immobilization level of −6000 response units (RU) was attained for each bound protein. Residual reactive groups on the chip surface were blocked using 1.0 Methanolamine/HCl, pH 8.5.
as §2
We previously reported that the protection against HIV-1 afforded by retrocyclin-1 and its analogs was correlated to their binding to gp120 and CD4. In those experiments, biosensor chips containing immobilized gp120 or CD4 were perfused with a 1 μg/ml solution of the peptides, and binding was measured by surface plasmon resonance. When we compared binding by retrocyclin-1 and RC-101 in exactly the same manner, we saw very little difference between them. FIG. 20 compares the binding of lower concentrations of these peptides, ranging from 0.05 to 0.5 μg/ml, to immobilized gp120 LAV. From these binding isotherms, and from similar studies performed with biosensor chips containing immobilized gp120 BaL or CD4, the binding constants shown in Table 7 were obtained. […]

| SMILES | cytotoxicity (trypan blue exclusion) (H9 cells) | Kd (gp120 (BaL)) | koff (gp120 (BaL)) | kon (gp120 (BaL)) | inhibition of HIV-1 replication (p24) (HIV-1 strain JR-CSF) | koff (gp120 (LAV)) | kon (gp120 (LAV)) | average number of cells (H9 cells; 20 μg/ml peptide, H9, IIIB) |
| --- | --- | --- | --- | --- | --- | --- | --- | --- |
| CC[C@H](C)[C@@H]1NC(=O)CNC(=O)[C@H](CCCCN)NC(=O)CNC(=O)[C@@H]2CSSC[C@H](NC1=O)C(=O)N[C@@H](CCCNC(=N)N)C(=O)N[C@H]1CSSC[C@H](NC(=O)[C@H](CCCNC(=N)N)NC(=O)[C@@H]3CSSC[C@H](NC(=O)[C@H]([C@@H](C)CC)NC1=O)C(=O)NCC(=O)N[C@@H](CCCNC(=N)N)C(=O)NCC(=O)N[C@@H]([C@@H](C)CC)C(=O)N3)C(=O)N[C@@H]([C@@H](C)CC)C(=O)N2 [RC-101, R9K-Retrocyclin] | neither 20 μg/ml retrocyclin nor RC-101 were cytotoxic | 20.5 nM | 5.55 × 10^−3 | 27.0 × 10^4 | as active as retrocyclin | 0.00304 s⁻¹ | 97200 M⁻¹ s⁻¹ |  |
| CC[C@H](C)[C@@H]1NC(=O)CNC(=O)[C@H](CCCNC(=N)N)NC(=O)CNC(=O)[C@@H]2CSSC[C@H](NC1=O)C(=O)N[C@@H](CCCNC(=N)N)C(=O)N[C@H]1CSSC[C@H](NC(=O)[C@H](CCCNC(=N)N)NC(=O)[C@@H]3CSSC[C@H](NC(=O)[C@H]([C@@H](C)CC)NC1=O)C(=O)NCC(=O)N[C@@H](CCCNC(=N)N)C(=O)NCC(=O)N[C@@H]([C@@H](C)CC)C(=O)N3)C(=O)N[C@@H]([C@@H](C)CC)C(=O)N2 [RC-100, Retrocyclin] (cyclo(GICRCICGRGICRCICGR); disulfide 3-16, 5-14, 7-12) | neither 20 μg/ml retrocyclin nor RC-101 were cytotoxic | 29.2 nM | 4.12 × 10^−3 | 14.1 × 10^4 | complete suppression; also recorded: uniformly protective | 0.00296 s⁻¹ | 80300 M⁻¹ s⁻¹ | 1.2e+06 mL⁻¹ |
